Assay results taken from paper PMC11412156 (Journal of medicinal chemistry, 2024).

Assays:
MsEH = target: T1, MsEH (Mus musculus, UniProt P34914); test: fluorescent-based sEH assay with PHOME as substrate; type: biochemical
T1 sequence (P34914 1-554): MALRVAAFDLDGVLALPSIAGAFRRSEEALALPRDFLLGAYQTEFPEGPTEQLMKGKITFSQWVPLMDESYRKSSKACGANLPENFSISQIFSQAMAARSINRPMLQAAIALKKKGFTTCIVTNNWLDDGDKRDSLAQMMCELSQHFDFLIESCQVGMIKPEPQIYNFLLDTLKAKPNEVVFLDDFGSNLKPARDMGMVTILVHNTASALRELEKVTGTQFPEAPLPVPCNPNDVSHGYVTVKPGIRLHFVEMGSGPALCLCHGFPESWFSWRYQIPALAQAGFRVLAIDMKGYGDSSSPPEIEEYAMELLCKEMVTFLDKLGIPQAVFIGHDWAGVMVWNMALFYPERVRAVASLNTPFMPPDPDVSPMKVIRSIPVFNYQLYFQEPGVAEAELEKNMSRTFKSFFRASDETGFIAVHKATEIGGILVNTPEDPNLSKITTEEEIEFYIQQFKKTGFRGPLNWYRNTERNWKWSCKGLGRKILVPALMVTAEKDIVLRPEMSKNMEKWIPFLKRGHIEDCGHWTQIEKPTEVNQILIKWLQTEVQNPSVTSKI

HDAC11 = target: T2, HDAC11 (Homo sapiens, UniProt Q96DB2); test: HDAC enzyme-based fluorogenic assay, HDAC11; type: biochemical
T2 sequence (Q96DB2 1-347): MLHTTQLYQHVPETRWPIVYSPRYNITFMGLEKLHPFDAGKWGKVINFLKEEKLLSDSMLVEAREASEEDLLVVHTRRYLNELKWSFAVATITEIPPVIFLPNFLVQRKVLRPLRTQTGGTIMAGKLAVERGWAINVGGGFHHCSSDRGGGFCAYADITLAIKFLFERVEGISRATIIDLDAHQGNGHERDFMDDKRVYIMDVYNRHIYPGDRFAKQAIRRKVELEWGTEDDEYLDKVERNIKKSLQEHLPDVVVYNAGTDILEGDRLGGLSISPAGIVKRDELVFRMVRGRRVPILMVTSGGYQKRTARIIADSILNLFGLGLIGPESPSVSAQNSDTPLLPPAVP

[1] = Plasma protein binding by equilibrium dialysis; type: in vitro ADME; details: rat
[2] = Pharmacokinetic study in rats; type: in vivo, SD rats; details: for CL / Vz: SD rats, ig (oral) 50 mg/kg; for AUC(0-inf) / AUC(0-t) / Cmax / Tmax / Vd / clearance / half-life / bioavailability: both, Sprague-Dawley, rat, plasma; for bioavailability: oral
HDAC1 = HDAC1 (Homo sapiens, UniProt Q13547); test: HDAC enzyme-based fluorogenic assay, HDAC1; type: biochemical
Chain of HDAC1 (Q13547 whole entry): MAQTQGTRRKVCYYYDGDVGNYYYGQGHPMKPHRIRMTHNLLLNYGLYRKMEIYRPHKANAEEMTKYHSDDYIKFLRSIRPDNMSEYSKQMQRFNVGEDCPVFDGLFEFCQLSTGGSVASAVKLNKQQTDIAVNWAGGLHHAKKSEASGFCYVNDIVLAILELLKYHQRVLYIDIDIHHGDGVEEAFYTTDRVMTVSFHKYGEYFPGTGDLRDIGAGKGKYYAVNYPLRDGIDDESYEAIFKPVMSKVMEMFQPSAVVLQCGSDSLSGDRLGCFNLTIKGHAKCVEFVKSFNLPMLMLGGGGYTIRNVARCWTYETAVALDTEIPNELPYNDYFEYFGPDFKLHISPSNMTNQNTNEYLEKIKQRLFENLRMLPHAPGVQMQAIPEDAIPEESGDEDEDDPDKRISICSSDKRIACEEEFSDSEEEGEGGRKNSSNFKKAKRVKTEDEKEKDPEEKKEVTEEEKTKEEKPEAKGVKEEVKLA

HDAC3 = HDAC3 (Homo sapiens, UniProt O15379); test: HDAC enzyme-based fluorogenic assay, HDAC3; type: biochemical
Chain of HDAC3 (O15379 whole entry): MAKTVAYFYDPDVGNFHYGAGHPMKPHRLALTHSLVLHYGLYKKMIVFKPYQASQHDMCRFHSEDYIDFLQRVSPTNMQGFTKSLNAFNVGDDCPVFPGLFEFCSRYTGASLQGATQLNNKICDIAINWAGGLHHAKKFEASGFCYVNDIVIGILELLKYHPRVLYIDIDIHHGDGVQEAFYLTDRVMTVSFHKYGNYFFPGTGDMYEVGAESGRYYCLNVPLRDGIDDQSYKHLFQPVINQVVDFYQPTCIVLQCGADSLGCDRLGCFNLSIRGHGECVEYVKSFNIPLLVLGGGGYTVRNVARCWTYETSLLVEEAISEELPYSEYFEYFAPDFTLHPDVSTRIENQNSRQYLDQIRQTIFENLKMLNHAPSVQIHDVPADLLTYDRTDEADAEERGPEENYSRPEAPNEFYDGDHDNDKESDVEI
Chain of HDAC3 (Q9Y618 395-489 partner limits assumed): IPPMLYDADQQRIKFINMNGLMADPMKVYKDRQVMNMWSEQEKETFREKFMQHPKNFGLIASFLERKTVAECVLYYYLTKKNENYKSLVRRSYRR

HDAC2 = HDAC2 (Homo sapiens, UniProt Q92769); test: HDAC enzyme-based fluorogenic assay, HDAC2; type: biochemical
Chain of HDAC2 (Q92769 whole entry): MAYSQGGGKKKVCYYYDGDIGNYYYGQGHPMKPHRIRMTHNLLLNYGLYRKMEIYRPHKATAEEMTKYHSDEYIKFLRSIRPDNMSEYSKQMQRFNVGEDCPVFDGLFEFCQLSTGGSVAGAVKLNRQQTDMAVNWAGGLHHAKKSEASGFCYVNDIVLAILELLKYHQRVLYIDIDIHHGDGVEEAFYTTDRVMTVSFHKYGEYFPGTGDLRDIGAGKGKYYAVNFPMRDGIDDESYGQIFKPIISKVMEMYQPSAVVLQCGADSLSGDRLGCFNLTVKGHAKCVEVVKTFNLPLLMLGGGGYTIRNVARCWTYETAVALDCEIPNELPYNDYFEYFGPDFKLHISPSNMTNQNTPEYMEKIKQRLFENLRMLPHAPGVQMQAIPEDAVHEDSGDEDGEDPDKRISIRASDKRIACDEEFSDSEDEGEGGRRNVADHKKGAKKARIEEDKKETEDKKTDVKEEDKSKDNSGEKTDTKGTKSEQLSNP

HsEH = target: T3, HsEH (Homo sapiens, UniProt P34913); test: fluorescent-based sEH assay with PHOME as substrate; type: biochemical
T3 sequence (P34913 1-555): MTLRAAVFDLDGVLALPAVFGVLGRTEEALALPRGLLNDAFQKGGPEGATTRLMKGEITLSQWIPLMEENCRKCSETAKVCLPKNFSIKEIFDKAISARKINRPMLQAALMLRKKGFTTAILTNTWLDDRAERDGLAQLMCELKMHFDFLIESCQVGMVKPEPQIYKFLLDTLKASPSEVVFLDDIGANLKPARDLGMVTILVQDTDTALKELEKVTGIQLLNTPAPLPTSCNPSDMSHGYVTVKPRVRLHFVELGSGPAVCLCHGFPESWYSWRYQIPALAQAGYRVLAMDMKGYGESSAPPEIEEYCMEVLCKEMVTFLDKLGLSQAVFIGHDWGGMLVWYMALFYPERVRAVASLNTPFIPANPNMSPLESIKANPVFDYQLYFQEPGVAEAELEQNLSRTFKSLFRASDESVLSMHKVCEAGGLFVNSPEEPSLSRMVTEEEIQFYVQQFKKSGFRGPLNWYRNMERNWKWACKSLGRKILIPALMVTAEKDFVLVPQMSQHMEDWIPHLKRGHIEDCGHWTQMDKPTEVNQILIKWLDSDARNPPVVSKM

HDAC8 = target: T4, HDAC8 (Homo sapiens, UniProt Q9BY41); test: HDAC enzyme-based fluorogenic assay, HDAC8; type: biochemical
T4 sequence (Q9BY41 1-377): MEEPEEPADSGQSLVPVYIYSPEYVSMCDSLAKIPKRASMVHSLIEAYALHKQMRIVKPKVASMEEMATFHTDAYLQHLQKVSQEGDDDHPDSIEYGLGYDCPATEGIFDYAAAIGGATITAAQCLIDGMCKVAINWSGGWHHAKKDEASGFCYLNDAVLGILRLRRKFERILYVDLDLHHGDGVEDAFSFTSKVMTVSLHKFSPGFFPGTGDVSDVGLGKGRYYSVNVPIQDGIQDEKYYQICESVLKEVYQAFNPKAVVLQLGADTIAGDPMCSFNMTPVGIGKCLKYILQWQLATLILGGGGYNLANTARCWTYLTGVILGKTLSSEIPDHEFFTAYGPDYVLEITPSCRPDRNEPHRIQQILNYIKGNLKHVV

[3] = In vitro metabolic stability in rat liver microsomes; type: in vitro ADME; details: for half-life: Sprague-Dawley, rat, liver microsomes, pH 7.4; for metabolic stability in RLM, column 0: incubation 0 min; for metabolic stability in RLM, column 0 / metabolic stability in RLM, column 10 / metabolic stability in RLM, column 30 / metabolic stability in RLM, column 45 / metabolic stability in RLM, column 60: 37 °C, NADPH; for metabolic stability in RLM, column 10: incubation 10 min; for metabolic stability in RLM, column 30: incubation 30 min; for metabolic stability in RLM, column 45: incubation 45 min; for metabolic stability in RLM, column 60: incubation 60 min

Structure (SMILES): O=C(CCCCCCNC(=O)[C@H]1CCCN(C(=O)c2ccc(NC(=O)Nc3ccc(Cl)c(F)c3)c(F)c2)C1)NO [Compound 28g, (S)-1-(4-(3-(4-Chloro-3-fluorophenyl)ureido)-3-fluorobenzoyl)-N-(7-(hydroxyamino)-7-oxoheptyl)piperidine-3-carboxamide]
- IC50 (MsEH): 46.8 nM
- IC50 (HDAC11): 464 nM
- fraction unbound [1]: 0.113
- CL [2]: 0.82 L/h
- Vz [2]: 4.20 L
- AUC(0-inf) ([2]; iv, 10 mg/kg): 21.2 µM·h
- AUC(0-t) ([2]; iv, 10 mg/kg): 12.3 µM·h
- Cmax ([2]; iv, 10 mg/kg): 7.87 µM
- Tmax ([2]; iv, 10 mg/kg): 0.08 h
- Vd ([2]; iv, 10 mg/kg): 1.28 L
- clearance ([2]; iv, 10 mg/kg): 2.67 mL/min
- half-life ([2]; iv, 10 mg/kg): 5.43 h
- bioavailability ([2]; 50 mg/kg): 24.4%
- AUC(0-inf) ([2]; po, 50 mg/kg): 21.2 µM·h
- AUC(0-t) ([2]; po, 50 mg/kg): 15 µM·h
- Cmax ([2]; po, 50 mg/kg): 6.63 µM
- Tmax ([2]; po, 50 mg/kg): 0.5 h
- half-life ([2]; po, 50 mg/kg): 3.55 h
- IC50 (HDAC1): 1150 nM
- IC50 (HDAC3): 1280 nM
- IC50 (HDAC2): 492 nM
- IC50 (HsEH): 0.9 nM
- IC50 (HDAC8): 62 nM
- half-life [3]: 2.28 h
- metabolic stability in RLM, column 0 [3]: 100.00
- metabolic stability in RLM, column 10 [3]: 91.61
- metabolic stability in RLM, column 30 [3]: 83.80
- metabolic stability in RLM, column 45 [3]: 78.76
- metabolic stability in RLM, column 60 [3]: 70.64

Structure (SMILES): O=C(CCCCCCNC(=O)[C@H]1CCCN(C(=O)c2ccc(NC(=O)Nc3cc(F)cc(F)c3)c(F)c2)C1)NO [Compound 28j, (S)-1-(4-(3-(3,5-Difluorophenyl)ureido)-3-fluorobenzoyl)-N-(7-(hydroxyamino)-7-oxoheptyl)piperidine-3-carboxamide]
- IC50 (MsEH): 103 nM
- IC50 (HDAC11): 1050 nM
- fraction unbound [1]: 0.119
- CL [2]: 0.96 L/h
- Vz [2]: 3.95 L
- AUC(0-inf) ([2]; iv, 10 mg/kg): 20 µM·h
- AUC(0-t) ([2]; iv, 10 mg/kg): 13.8 µM·h
- Cmax ([2]; iv, 10 mg/kg): 8.1 µM
- Tmax ([2]; iv, 10 mg/kg): 0.08 h
- Vd ([2]; iv, 10 mg/kg): 1.1 L
- clearance ([2]; iv, 10 mg/kg): 3 mL/min
- half-life ([2]; iv, 10 mg/kg): 4.08 h
- bioavailability ([2]; 50 mg/kg): 21.5%
- AUC(0-inf) ([2]; po, 50 mg/kg): 18.7 µM·h
- AUC(0-t) ([2]; po, 50 mg/kg): 14.8 µM·h
- Cmax ([2]; po, 50 mg/kg): 10.1 µM
- Tmax ([2]; po, 50 mg/kg): 0.17 h
- half-life ([2]; po, 50 mg/kg): 2.84 h
- IC50 (HDAC1): 1030 nM
- IC50 (HDAC3): 2620 nM
- IC50 (HDAC2): 1070 nM
- IC50 (HsEH): 3.6 nM
- IC50 (HDAC8): 72 nM
- half-life [3]: 0.939 h
- metabolic stability in RLM, column 0 [3]: 100.00
- metabolic stability in RLM, column 10 [3]: 85.62
- metabolic stability in RLM, column 30 [3]: 73.00
- metabolic stability in RLM, column 45 [3]: 59.75
- metabolic stability in RLM, column 60 [3]: 50.47
